Data reported in patent publication US7863415B2 (The Regents of the University of California, priority 2004, dated 2011).
Entries after “also recorded” stand apart in the source; their conditions may differ. Starred links: 1 amine or outer side, 2 acyl side, 3 side chain; linkers in the order of their positions; H or OH if unused. Non-standard residues stand in square brackets, D forms with d. Residues, ends and D or L forms follow the SMILES beside them. X1 = N=C(N)NC(=O)c1nc(Cl)c(N(CC(=O)[*:2])[*:1])nc1N

What was measured:
[1] = tested on: T1, Compound 3d (C5am conjugate of the peptide Gly-Gly-Gly-Phe-Leu)
T1 sequence: GGGFL

[2] = tested on: T2, Compound 3b (C5am-Gly-D-Ala-Gly-Phe-D-Leu-OH)
T2 sequence: GXGFX

[3] = tested on: T3, Compound 3c (C5am-Gly-Gly-Gly-Gly-Phe-Leu-OH)
T3 sequence: GGGGFL

[4] = tested on: [Ca^2+]i in U87 glioma cells; test: [Ca2+]i in U87 glioma cells loaded with fura-2AM, quantitative fluorescent microscopy; type: cell-based, human
Description: Therefore, the levels of [Ca^2+]i in U87 glioma cells loaded with fura-2AM were measured using quantitative fluorescent microscopy. […] The ATP-dependent calcium regulatory mechanisms within U87 glioma cells containing fura-2 were then examined. […] ATP synthase operates in reverse when milimolar concentrations of calcium are stored by the mitochondrion (Nicholls, Bioenergetics, 3, Academic Press, London, 3rd edition (2002)).
Quantitative fluorescent microscopy of [Ca^2+]i levels. [Ca^2+]i levels can be measured in cells loaded with either fura-2A or fura-2FFAM under the conditions described above.

[5] = tested on: glioma cells and primary astrocytes; test: Cell entry by confocal microscopy; type: in vitro ADME
NHE1 and NCX = NHE1 and NCX inhibitors from the literature; cited from earlier work
U87 glioma cells [6] = test: Glioma cell death, manual cell counts with trypan blue exclusion
NHE1 = NHE1 (Homo sapiens, UniProt P19634); test: NHE1 inhibition: sodium-dependent pHi recovery in BCECF-loaded U87 glial cells after ammonium chloride pre-pulse; type: cell-based; set-up: Sodium-dependent proton extrusion in U87 glial cells and in primary astrocytes is mediated by the type 1 sodium proton exchanger (NHE1); endogenous in cells; host or cells: U87 human glioma cells
NHE1, sequence (P19634 whole entry): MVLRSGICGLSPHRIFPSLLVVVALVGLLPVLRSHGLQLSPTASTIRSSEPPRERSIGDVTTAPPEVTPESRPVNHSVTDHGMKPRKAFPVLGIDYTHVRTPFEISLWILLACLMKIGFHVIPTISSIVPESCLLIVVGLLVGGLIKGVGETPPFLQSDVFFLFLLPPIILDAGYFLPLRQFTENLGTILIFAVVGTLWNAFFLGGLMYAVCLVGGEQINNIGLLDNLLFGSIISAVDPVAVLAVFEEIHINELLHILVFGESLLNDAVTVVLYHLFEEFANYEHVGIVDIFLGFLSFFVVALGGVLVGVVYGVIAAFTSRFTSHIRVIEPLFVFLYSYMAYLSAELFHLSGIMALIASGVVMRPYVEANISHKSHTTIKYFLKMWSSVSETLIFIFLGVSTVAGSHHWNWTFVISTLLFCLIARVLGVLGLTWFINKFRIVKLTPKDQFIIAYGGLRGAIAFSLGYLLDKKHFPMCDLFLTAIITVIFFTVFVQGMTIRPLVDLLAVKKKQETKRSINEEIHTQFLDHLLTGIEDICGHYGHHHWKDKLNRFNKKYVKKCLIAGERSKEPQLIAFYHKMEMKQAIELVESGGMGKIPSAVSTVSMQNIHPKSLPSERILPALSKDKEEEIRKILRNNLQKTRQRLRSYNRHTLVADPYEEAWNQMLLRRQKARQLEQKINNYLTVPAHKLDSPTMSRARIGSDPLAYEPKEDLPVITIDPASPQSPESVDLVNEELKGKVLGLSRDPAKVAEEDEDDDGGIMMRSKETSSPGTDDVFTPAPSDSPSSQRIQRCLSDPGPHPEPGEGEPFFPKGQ
Description: Intracellular pH Measurements. U87 glial cells were grown on glass coverslips and incubated for 30 minutes at 37° C. with the pH-sensitive dye, 2′,7′-bis(2-carboxyethyl)-5(6)-carboxyfluorescein-AM (BCECF-AM; Molecular Probes, OR). Cells were rinsed with HEPES Ringer buffer twice and maintained at 37° C. for an additional 15 minutes to permit intracellular hydrolysis of the AM ester; trapping BCECF within the cells. Cells on coverslips were placed in a Hitachi F2000 fluorescent spectrophotometer and excited at 440 and 507 nm with fluorescent emissions recorded at 535 nm (Hegde et al., J. Pharmacol. Exp. Ther., 310:67-74 (2004)).
NHE inhibition by compounds 3a and 3c was evaluated using intracellular pH (pHi) measurements in the U87 human glial cell line (Hegde et al., supra). Cells loaded with BCECF were then acidified using the ammonium chloride pre-pulse method (Roos et al., Physiol Rev, 61:296-434 (1981)). The subsequent sodium-dependent recovery of pHi by these cells in the absence of bicarbonate was monitored using a spectrofluorometer. Sodium-dependent proton extrusion in U87 glial cells and in primary astrocytes is mediated by the type 1 sodium proton exchanger (NHE1) (McLean et al., supra; Hegde et al., supra) and was monitored in the presence or absence of compound 3a or 3c.
IC50 drug determinations for NHE1. This method utilizes spectrofluorometric measurements of [H^+]i as described above. The ammonium chloride prepulse method can be used to acidify cells in the presence of HR that is sodium-substituted with NMDG. Perfusion of the acidified cells with HR that contains sodium causes activation of NHE1 that is inhibited in a concentration-dependent fashion as described in McLean et al., supra.

[7] = tested on: glioma in poorly vascularized tumor regions; test: Single intracerebral infusion of DCB in tumor-bearing animals; type: in vivo; conditions: 10 pmol over 2 h
Description: Unfortunately, DCB was associated with 4 of 5 animals dying during the following 12 to 24 h.

[8] = Incubation in buffer solutions without enzymes, LC-MS; type: in vitro ADME
Description: (§1) Compound 3b is a C5am-Gly-peptide conjugate containing two D-amino acids, and compound 3c is a C5am-Gly-peptide conjugate coupled to a peptide to generate an analog of opioid peptides that cross the blood brain barrier (BBB). The resultant conjugates (compounds 3a-c) were tested for selective cleavage by the brain peptidase enkephalinase (neutral endopeptidase 24.11; Calbiochem) via incubation for 24 h in the presence or absence of the enzyme, and aliquots from the reaction solutions were then analyzed by LC-MS to identify the C5am-Gly conjugate (compound 3a), starting material, and enzymatic cleavage products (see, Scheme 3). As negative control experiments, the conjugates were analyzed following treatment with (1) bovine pancreatic trypsin (Calbiochem) or (2) the buffer solutions without enzymes.

[9] = tested on: enkephalinase (endopeptidase 24.11); test: Enzyme digestion with enkephalinase, LC-MS/ESI; type: in vitro ADME, porcine; conditions: for Conclusion (Peptidase: Enkephalinase): 10 μM conjugate, 10 units enzyme, 25° C., pH 7.4, 24 h; for Cleavage by enkephalinase (release of compound 3a): 24 h incubation, LC-MS
Description: as §1
(§2) Enzyme digestion. Endopeptidase 24.11 (neutral, porcine kidney) and trypsin (bovine pancreas) were purchased from CalBiochem (San Diego, Calif.) and used as received. Enzymatic cleavage experiments using endopeptidase 24.11 were conducted at 25° C. in a pH 7.4 Tris buffer (150 mM NaCl, 50 mM Tris, 0.1% Triton X-100) as recommended by the manufacturer (see also, Barnes et al., J. Neurochem., 64:1826-1832 (1995), Gafford et al., Biochemistry, 22:3265-3271 (1983)). Similarly, trypsin cleavage experiments were conducted at 25° C. in pH 7.4 Dulbecco's phosphate buffered saline (Gibco; Grand Island, N.Y.). The digestion reactions included 10 μM of the amiloride-peptide conjugate and 10 units of enzyme in 250 μL of buffer. Direct aliquots were analyzed by LC-MS/ESI following a 24 hour incubation period.
(§3) Enzyme Digestion Study. Compounds 3a-d were each incubated at 25° C. with 10 units of enkephalinase (endopeptidase 24.11) to determine their susceptibility towards enzymatic cleavage. Reaction aliquots were taken following a 24 hour incubation period and analyzed directly by LC-MS/ESI (Thermo Finnigan LCQ) for the presence of the starting material and the targeted cleavage product, compound 3a (C5am-Gly). […] Since there are no basic amino acid residues in compounds 3a-d, trypsin was employed as a negative control to ensure that any observed cleavage products could be ascribed only to endopeptidase-specific interactions (Jackson, Protein Science, 8:603-613 (1999)).

trypsin = target: T4, trypsin (Bos taurus, UniProt P00760); test: Enzyme digestion with trypsin (negative control), LC-MS/ESI; type: in vitro ADME, bovine; conditions: for Conclusion (Peptidase: Trypsin): 10 μM conjugate, 10 units enzyme, 25° C., pH 7.4, 24 h; for Cleavage by trypsin (release of compound 3a): 24 h incubation, LC-MS
T4 construct: purchased CalBiochem (San Diego, Calif.); host or cells: bovine pancreas
T4 sequence (P00760 24-246): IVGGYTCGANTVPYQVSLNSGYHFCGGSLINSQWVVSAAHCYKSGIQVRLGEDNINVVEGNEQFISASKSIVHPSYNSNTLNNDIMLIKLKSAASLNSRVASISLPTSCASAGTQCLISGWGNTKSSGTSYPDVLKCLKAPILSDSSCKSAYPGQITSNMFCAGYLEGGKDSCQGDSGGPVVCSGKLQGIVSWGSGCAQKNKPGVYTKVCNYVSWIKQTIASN
Description: as §1, §2, §3

U87 cells = test: Intracellular translocation into U87 cells by fluorescence microscopy; conditions: 50 μM; 90 and 180 min; 380 nm excitation, 510 nm emission
Description: Fluorescence Microscopy. […] Excitation light was provided by a xenon arc lamp coupled to the Polychrome IV scanning monochromator (Till Photonics; Grafelfing, Germany) that alternately excites with different wavelengths. Excitation light was delivered by fiber optics to cells through the epifluorescence port of a Nikon E600 microscope coupled to a Nikon Fluor 60× water immersion lens. The detector was an Orca II-ER CCD digital camera (Hamamatsu USA; Bridgewater, N.J.), which is controlled by C-Imaging Simple PCI software (Compix; Cranberry Township, Pa.).
Intracellular emission intensities were collected in regions of interest (ROI) from an average of 4-8 cells/field using Simple PCI imaging software. […] Images were captured as TIFF files (C-imaging Simple PCI software), and light and fluorescent images of the same field were imported in Photoshop 6.0 and vector graphics added using Illustrator 9.0.1 (Adobe; San Jose, Calif.).

U87 glioma cells [10] = test: Glioma cell proliferation, manual cell counts with trypan blue; type: cell-based, human
Description: C(5)-amiloride glycine conjugate (C5am-Gly) inhibits NHE1 in U87 glioma cells and is antiproliferative. […] The inhibitory activity of C5am-Gly against NCX was tested and a systematic log dose screen of C5am-Gly against a panel of glioma cells and primary astrocytes was performed.
Manual cell counts with dye exclusion assays. Identical concentrations of glioma cells can be plated on 60 mm dishes and grown until 50% confluent. Following drug treatments, media containing floating cells can be collected in suspension. Adherent cells can be rinsed in calcium- and magnesium-free phosphate-buffered saline (PBS-CMF) and removed by incubation with 0.25% v/v trypsin for 5 minutes (37° C.). Cell suspensions can be combined with the floating fraction and centrifuged at 350×g for 5 minutes. The resulting pellet (one per dish) can be resuspended in equal volumes of PBS-CMF with 0.4% trypan blue and/or 500 nM Sytox Green. 10 μL aliquots of the suspension can be plated on a hemocytometer, and cells can be counted 5 minutes after staining. Simultaneous staining of cells with trypan (TB) and Sytox Green (SG) can be visualized by switching between visible light and fluorescein green.

## Enkephalinase (neutral endopeptidase 24.11, porcine kidney; CalBiochem)
[1]
  Enzymatic digestion, LC-MS fragments at 24 h; Conclusion: Enkephalinase resistant
[2]
  Enzymatic digestion, LC-MS fragments at 24 h; Conclusion: Enkephalinase resistant
[3]
  Enzymatic digestion, LC-MS fragments at 24 h; Conclusion: Enkephalinase-mediated release of 3a

## N=C(NCc1ccc(Cl)cc1Cl)NC(=O)c1nc(Cl)c(N)nc1N [DCB, 2,4-dichlorobenzamil]
[4]; U87 glioma cells, FCCP or oligomycin
  Effect of pretreatment on [Ca2+]i after calcium release from mitochondrial stores: increase to cytotoxic levels
[4]; pretreatment followed by oligomycin or FCCP
  Persistent increase of [Ca2+]i: > 800 nM
[5]
  Time to enter glioma cells and primary astrocytes: ≤ 150 min
NHE1 and NCX
  Rel. Activity: NCX > NHE
U87 glioma cells [6]; U87 glioma cells, C2am-Gly within 24 h
  Concentration that killed U87 glioma cells: 15 µM
U87 glioma cells [6]; glioma cells
  Glioma Effect: cytotoxic concentration: 15 μM cytotoxic
U87 glioma cells [6]; glioma cells, amiloride within 48-72 hours
  Concentration that killed glioma cells: ≥ 20 µM
NHE1; U87 glioma cells loaded with BCECF
  Concentration that inhibits NHE1 and reduces pHi: 50-100 nM
[7]
  Animals dying during the following 12 to 24 h: 4 of 5
  Glioma death within poorly vascularized tumor regions (histology): extensive glioma death

## CC(C)C[C@@H](NC(=O)[C@H](Cc1ccccc1)NC(=O)CNC(=O)[C@@H](C)NC(=O)CNc1nc(N)c(C(=O)NC(=N)N)nc1Cl)C(=O)O [Compound 3b, C5am-Gly-D-Ala-Gly-Phe-D-Leu-OH] (H-[X1][dA]GF[dL]-OH)
[8]
  Stability in control (buffer) digestion: not cleaved
[9]
  Conclusion (Peptidase: Enkephalinase): Enkephalinase resistant
  Cleavage by enkephalinase (release of compound 3a): not cleaved; also recorded: resistant
trypsin
  Conclusion (Peptidase: Trypsin): Trypsin resistant
  Cleavage by trypsin (release of compound 3a): not cleaved; also recorded: resistant

## N=C(N)NC(=O)c1nc(Cl)c(NCC(=O)O)nc1N [Compound 3a]
[8]
  Stability in control (buffer) digestion: unaffected
U87 cells
  Intracellular accumulation in U87 cells: no intracellular fluorescence above mean intracellular background; also recorded: failed to detect; also recorded: did not accumulate
[9]
  Conclusion (Peptidase: Enkephalinase): Enkephalinase resistant
  Cleavage by enkephalinase (release of compound 3a): unaffected; also recorded: stable
NHE1; U87 glial cells, sodium-dependent pHi recovery without bicarbonate, read-out: IC50 (μM) +/− SD (NHE inhibition)
  IC50: 13 ± 7 µM
trypsin
  Conclusion (Peptidase: Trypsin): Trypsin resistant
  Cleavage by trypsin (release of compound 3a): unaffected; also recorded: stable
U87 glioma cells [10]; glioma cells
  Glioma Effect: antiproliferative concentration: ≦100 μM antiproliferative
U87 glioma cells [10]; ≦100 μM, 48 h
  Proliferation of U87 glioma cells, % of stage-matched controls: 22%
